Here are results for 12 molecules from patent US20160303245A1, “FATTY ACID DERIVATIVES OF DIMERIC INHIBITORS OF PSD-95” (UNIVERSITY OF COPENHAGEN, priority 2013, published 2016).

Data set [1] has as its target T1, HSA (Homo sapiens, UniProt P02768).
T1 construct: purchased Sovicell GMBH, Leipzig, Germany
Put plainly: Transil XL HSA binding assay (immobilized HSA, unbound compound quantified by RP-HPLC). How it is done:
The synthesized FA-linked dimeric ligands (1-12) were evaluated for their HSA affinity using a Transil^XL HSA binding assay kit (Sovicell GMBH, Leipzig, Germany). […] The assay kit consisted of prefilled wells with increasing concentrations of immobilized HSA as well as two control wells without HSA. The HSA had been immobilized in a random fashion to ensure that all binding sites on HSA were available. To conduct the assay, the wells were incubated with a known concentration of the tested compounds, and the unbound amount of compound was quantified using analytical RP-HPLC (C8 column). The fraction of unbound drug (fu) for each data point was calculated from the RP-HPLC data by comparison to a control sample without HSA. […] In eq. 1, it is assumed that the concentration of drug-bound HSA ([HSA-D]) is much lower than the total concentration of HSA in the well ([HSA-D]<<cHSA). The assay kit has been designed such that the assumption is valid for compounds where fu>1%. The calculated KD-values were used to calculate fb at physiological concentration of HSA (588 μM) using equation 2.

Data set [2] concerns the target PSD-95 PDZ1-2 (Homo sapiens, UniProt P78352). Description: In vitro fluorescence polarization (FP) competition binding assay, in TBS and modified with 1% HSA. How it is done:
Affinity to PSD-95 was measured using an in vitro fluorescence polarization (FP) assay as described by Bach et al (PNAS USA, 2012, 109, 3317-3322). First, a saturation binding curve was obtained to determine KD values for the interaction between a dimeric fluorescent probe and PSD-95 PDZ1-2. Increasing concentrations of PDZ1-2 were added to a constant concentration (0.5 nM) of the probe. The fluorescence polarization of the samples was measured at excitation/emission wavelengths of 635/670 nm and the FP values were fitted to a one site binding model using the program GraphPad Prism. […] The FP values were fitted to a one site competition (variable slope) model in GraphPad Prism. The resulting IC50 were converted to competition inhibition constants, Ki values, as described (Nikolovska-Coleska et al, Anal Biochem, 2004, 332, 261-273). The modified FP assay was conducted as described above with 1% HSA in the assay. The synthesized FA-linked dimeric ligands were evaluated for their affinity to PSD-95 PDZ1-2 in the FP assay. […] We first measured the affinities using a simple tris-buffered saline (TBS) buffer (Table 2, FIG. 3A); but furthermore, we investigated if HSA influenced the ability of the FA-linked dimers to bind PSD95 PDZ1-2 by conducting the FP assay with HSA present in the assay buffer (Table 2, FIG. 3B). […] For a traditional small-molecule drug, it is commonly accepted that the unbound fraction of the drug is free to diffuse across membranes and exerts the physiological effect by interacting with its target (Berezhkovskiy et al, J Pharm Sci 2007, 96, 249-257). I.e. if the drug is bound to another molecule, then it cannot interact with the target at the same time.

Setting [3] is: FP in TBS with 1% HSA (~150 μM), mean ± SEM, n ≧ 3, read-out: Ki(PSD95) + HSA.

Several values for one entry are separate records, joined by “and”; a condition that tells them apart may be missing. Equal entries are not always repeated. Where two headings read alike, the source gives them in different places.

T1 sequence (P02768 25-609): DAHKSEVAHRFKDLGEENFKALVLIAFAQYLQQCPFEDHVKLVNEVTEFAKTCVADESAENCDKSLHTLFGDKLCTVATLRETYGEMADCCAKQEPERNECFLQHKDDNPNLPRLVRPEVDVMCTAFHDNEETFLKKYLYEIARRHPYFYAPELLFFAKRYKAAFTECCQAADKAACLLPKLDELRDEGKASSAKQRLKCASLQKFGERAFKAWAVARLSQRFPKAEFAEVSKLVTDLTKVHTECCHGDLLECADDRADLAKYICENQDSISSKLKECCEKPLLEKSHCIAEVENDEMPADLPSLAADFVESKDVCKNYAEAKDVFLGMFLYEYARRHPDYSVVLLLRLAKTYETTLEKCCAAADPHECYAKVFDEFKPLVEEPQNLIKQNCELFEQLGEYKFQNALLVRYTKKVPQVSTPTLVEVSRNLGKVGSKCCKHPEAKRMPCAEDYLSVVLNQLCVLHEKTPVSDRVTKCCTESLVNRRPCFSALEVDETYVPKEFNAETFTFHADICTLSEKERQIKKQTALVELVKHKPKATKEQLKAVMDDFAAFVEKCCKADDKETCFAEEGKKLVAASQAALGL
Sequence of PSD-95 PDZ1-2 (P78352 61-249 limits assumed): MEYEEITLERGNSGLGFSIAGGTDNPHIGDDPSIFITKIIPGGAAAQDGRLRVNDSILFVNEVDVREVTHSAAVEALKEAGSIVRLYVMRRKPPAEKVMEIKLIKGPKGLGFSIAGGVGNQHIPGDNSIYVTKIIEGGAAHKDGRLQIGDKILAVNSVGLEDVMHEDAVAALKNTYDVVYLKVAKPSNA

Take `CC[C@H](C)[C@H](NC(=O)CCOCCOCCN(CCOCCOCCC(=O)N[C@H](C(=O)N[C@@H](CCC(=O)O)C(=O)N[C@H](C(=O)N[C@@H](C)C(=O)N[C@H](C(=O)O)C(C)C)[C@@H](C)O)[C@@H](C)CC)C(=O)CCCNC(=O)CCCCCCCCCCC(=O)O)C(=O)N[C@@H](CCC(=O)O)C(=O)N[C@H](C(=O)N[C@@H](C)C(=O)N[C@H](C(=O)O)C(C)C)[C@@H](C)O` [Compound 2]: in data set [1], the fraction unbound is 0.247.

In turn, `CCCCCCCCCCCCCCCCCC(=O)NCCCC(=O)N(CCOCCOCCC(=O)N[C@H](C(=O)N[C@@H](CCC(=O)O)C(=O)N[C@H](C(=O)N[C@@H](C)C(=O)N[C@H](C(=O)O)C(C)C)[C@@H](C)O)[C@@H](C)CC)CCOCCOCCC(=O)N[C@H](C(=O)N[C@@H](CCC(=O)O)C(=O)N[C@H](C(=O)N[C@@H](C)C(=O)N[C@H](C(=O)O)C(C)C)[C@@H](C)O)[C@@H](C)CC` [Compound 3] had an equilibrium dissociation constant (Kd) in data set [1] of 4.8 µM. Further, in data set [1], the fraction unbound was 0.031. For the same molecule, the inhibition constant (Ki) in data set [2] (FP data (TBS+HSA) corrected for calculated fu, read-out: Ki(PSD95), free ligand) was 0.0572 µM; in data set [2] (setting [3]), 1.89 ± 0.155 µM; in data set [2] (FP in TBS, mean ± SEM, n ≧ 3, read-out: Ki(PSD95)) it was 0.0111 µM.

`CCCCCCCCCCCC(=O)N[C@@H](CCC(=O)N(CCOCCOCCC(=O)N[C@H](C(=O)N[C@@H](CCC(=O)O)C(=O)N[C@H](C(=O)N[C@@H](C)C(=O)N[C@H](C(=O)O)C(C)C)[C@@H](C)O)[C@@H](C)CC)CCOCCOCCC(=O)N[C@H](C(=O)N[C@@H](CCC(=O)O)C(=O)N[C@H](C(=O)N[C@@H](C)C(=O)N[C@H](C(=O)O)C(C)C)[C@@H](C)O)[C@@H](C)CC)C(=O)O` [Compound 5] had a fraction unbound in data set [1] of 0.147.

On to `CC[C@H](C)[C@H](NC(=O)CCOCCOCCN(CCOCCOCCC(=O)N[C@H](C(=O)N[C@@H](CCC(=O)O)C(=O)N[C@H](C(=O)N[C@@H](C)C(=O)N[C@H](C(=O)O)C(C)C)[C@@H](C)O)[C@@H](C)CC)C(=O)CC[C@H](NC(=O)CCCCCCCCCCC(=O)O)C(=O)O)C(=O)N[C@@H](CCC(=O)O)C(=O)N[C@H](C(=O)N[C@@H](C)C(=O)N[C@H](C(=O)O)C(C)C)[C@@H](C)O` [Compound 6], for which the fraction unbound in data set [1] is 0.301.

In data set [1], `CC[C@H](C)[C@H](NC(=O)CCOCCOCCN(CCOCCOCCC(=O)N[C@H](C(=O)N[C@@H](CCC(=O)O)C(=O)N[C@H](C(=O)N[C@@H](C)C(=O)N[C@H](C(=O)O)C(C)C)[C@@H](C)O)[C@@H](C)CC)C(=O)CC[C@H](NC(=O)CCCCCCCCCCCCCCCCC(=O)O)C(=O)O)C(=O)N[C@@H](CCC(=O)O)C(=O)N[C@H](C(=O)N[C@@H](C)C(=O)N[C@H](C(=O)O)C(C)C)[C@@H](C)O` [Compound 8] registered a fraction unbound of 0.186.

In data set [1], `CCCCCCCCCCCC(=O)NCCCCC(=O)N(CCOCCOCCC(=O)N[C@H](C(=O)N[C@@H](CCC(=O)O)C(=O)N[C@H](C(=O)N[C@@H](C)C(=O)N[C@H](C(=O)O)C(C)C)[C@@H](C)O)[C@@H](C)CC)CCOCCOCCC(=O)N[C@H](C(=O)N[C@@H](CCC(=O)O)C(=O)N[C@H](C(=O)N[C@@H](C)C(=O)N[C@H](C(=O)O)C(C)C)[C@@H](C)O)[C@@H](C)CC` [Compound 9] displayed a fraction unbound of 0.271.

On to `CC[C@H](C)[C@H](NC(=O)CCOCCOCCN(CCOCCOCCC(=O)N[C@H](C(=O)N[C@@H](CCC(=O)O)C(=O)N[C@H](C(=O)N[C@@H](C)C(=O)N[C@H](C(=O)O)C(C)C)[C@@H](C)O)[C@@H](C)CC)C(=O)CCCCNC(=O)CCCCCCCCCCC(=O)O)C(=O)N[C@@H](CCC(=O)O)C(=O)N[C@H](C(=O)N[C@@H](C)C(=O)N[C@H](C(=O)O)C(C)C)[C@@H](C)O` [Compound 10], for which, in data set [1], the fraction unbound came out at 0.615.

As for `CCCCCCCCCCCCCCCCCC(=O)NCCCCC(=O)N(CCOCCOCCC(=O)N[C@H](C(=O)N[C@@H](CCC(=O)O)C(=O)N[C@H](C(=O)N[C@@H](C)C(=O)N[C@H](C(=O)O)C(C)C)[C@@H](C)O)[C@@H](C)CC)CCOCCOCCC(=O)N[C@H](C(=O)N[C@@H](CCC(=O)O)C(=O)N[C@H](C(=O)N[C@@H](C)C(=O)N[C@H](C(=O)O)C(C)C)[C@@H](C)O)[C@@H](C)CC` [Compound 11], the unbound share (fraction unbound) in data set [1] came out at 0.078. The Ki in data set [2] (setting [3]) is 1.89 ± 0.1 µM.

On to `CC[C@H](C)[C@H](NC(=O)CCOCCOCCN(CCOCCOCCC(=O)N[C@H](C(=O)N[C@@H](CCC(=O)O)C(=O)N[C@H](C(=O)N[C@@H](C)C(=O)N[C@H](C(=O)O)C(C)C)[C@@H](C)O)[C@@H](C)CC)C(=O)CCCCNC(=O)CCCCCCCCCCCCCCCCC(=O)O)C(=O)N[C@@H](CCC(=O)O)C(=O)N[C@H](C(=O)N[C@@H](C)C(=O)N[C@H](C(=O)O)C(C)C)[C@@H](C)O` [Compound 12], for which the fraction unbound in data set [1] is 0.083.

Turning to `CC[C@H](C)[C@H](NC(=O)CCOCCOCCN(CCOCCOCCC(=O)N[C@H](C(=O)N[C@@H](CCC(=O)O)C(=O)N[C@H](C(=O)N[C@@H](CC(=O)O)C(=O)N[C@H](C(=O)O)C(C)C)[C@@H](C)O)[C@@H](C)CC)C(=O)CCCNC(=O)CCCCCCCCCCCCCCCCC(=O)O)C(=O)N[C@@H](CCC(=O)O)C(=O)N[C@H](C(=O)N[C@@H](CC(=O)O)C(=O)N[C@H](C(=O)O)C(C)C)[C@@H](C)O` [Compound 14], in data set [1], the dissociation constant (Kd) was determined as 116 ± 7.6 µM and the fraction unbound came out at 0.436.

For the molecule `CCCCCCCCCCCCCCCCCC(=O)N[C@@H](CCC(=O)N(CCOCCOCCC(=O)N[C@H](C(=O)N[C@@H](CCC(=O)O)C(=O)N[C@H](C(=O)N[C@@H](CC(=O)O)C(=O)N[C@H](C(=O)O)C(C)C)[C@@H](C)O)[C@@H](C)CC)CCOCCOCCC(=O)N[C@H](C(=O)N[C@@H](CCC(=O)O)C(=O)N[C@H](C(=O)N[C@@H](CC(=O)O)C(=O)N[C@H](C(=O)O)C(C)C)[C@@H](C)O)[C@@H](C)CC)C(=O)O` [Compound 15], in data set [1], the Kd was 55 ± 3.4 µM and the fraction unbound was 0.268.

With `CC[C@H](C)[C@H](NC(=O)CCOCCOCCN(CCOCCOCCC(=O)N[C@H](C(=O)N[C@@H](CCC(=O)O)C(=O)N[C@H](C(=O)N[C@@H](CC(=O)O)C(=O)N[C@H](C(=O)O)C(C)C)[C@@H](C)O)[C@@H](C)CC)C(=O)[C@H](CCCNC(=N)N)NC(=O)[C@H](CCCNC(=N)N)NC(=O)[C@H](CCCNC(=N)N)NC(=O)[C@H](CCC(N)=O)NC(=O)[C@H](CCCNC(=N)N)NC(=O)[C@H](CCCNC(=N)N)NC(=O)[C@H](CCCCN)NC(=O)[C@H](CCCCN)NC(=O)[C@H](CCCNC(=N)N)NC(=O)CNC(=O)[C@@H](N)Cc1ccc(O)cc1)C(=O)N[C@@H](CCC(=O)O)C(=O)N[C@H](C(=O)N[C@@H](CC(=O)O)C(=O)N[C@H](C(=O)O)C(C)C)[C@@H](C)O` [UCCB01-144, reference compound], in data set [1] (calculated from KD at physiological concentration of HSA (588 μM), equation 2), the “fb (%), HSA bound fraction” value was 65% and 65.3 ± 2.9%. The fraction unbound in data set [1] (calculated from equation 2 at HSA concentration of 150 μM, read-out: fu (%), calculated fraction of unbound drug) was 0.679. Also, the Kd in data set [1] (mean ± SEM, n = 3, read-out: KD(HSA)) is 318 µM.
